Data taken from patent US20100331348A1, “TROPANE DERIVATIVES USEFUL AS PESTICIDES” (SYNGENTA CROP PROTECTION, INC., priority 2007, published 2010).
Where two headings read alike, the source gives them in different places.

How the values were obtained:
[1] = system: Puccinia recondita f.sp. tritici; experiment: Puccinia recondita f.sp. tritici (wheat brown rust) leaf disk assay; type: in vivo; conditions: foliar, 216 h, preventive, nine days after inoculation, read-out: control of fungal infection, Puccinia recondita f.sp. tritici
[2] = system: Erysiphe graminis f.sp. tritici; experiment: Erysiphe graminis f.sp. tritici (wheat powdery mildew) leaf disk assay; type: in vivo; conditions: Blumeria graminis, foliar, 96 h, preventive, four days after inoculation, read-out: control of fungal infection, Erysiphe graminis fsp. tritici
[3] = system: Plutella xylostella; experiment: Plutella xylostella (Diamond back moth) artificial diet test; conditions: 120 h, read-out: control of Plutella xylostella
[4] = system: Pyricularia oryzae; experiment: whole plant or invertebrate; type: in vivo; conditions: foliar, 96 h
[5] = system: Aedes aegypti; experiment: Aedes aegypti (Yellow fever mosquito) larvae test; type: in vivo; conditions: 48 h
[6] = system: Phytophthora infestans; experiment: whole plant or invertebrate; type: in vivo; conditions: foliar, 96 h, read-out: control of fungal infection, Phytophthora infestans
[7] = read-out: control of fungal infection, Pyricularia oryzae (at least 80% list)
[8] = read-out: control of fungal infection, Pyricularia oryzae (at least 60% list)

Compound	pest or weed control at 200 ppm [1] [%]	pest or weed control at 200 ppm [2] [%]	pest or weed control at 200 ppm [3] [%]	pest or weed control at 200 ppm [4, 7] [%]	pest or weed control at 2 ppm [5] [%]	pest or weed control at 200 ppm [4, 8] [%]	pest or weed control at 200 ppm [6] [%]
CCc1ncnc(N2C3CCC2CC(=NOCc2ccc4ccccc4c2)C3)c1Cl [Example 5.8]	≥ 80	≥ 80	≥ 80				
COC(=O)C=C1CC2CCC(C1)N2c1ncnc2sccc12 [Example 3.28]	≥ 80			≥ 80	≥ 80		
Fc1cccc(CON=C2CC3CCC(C2)N3c2ncnc3sccc23)c1 [Example 5.183]	≥ 80	≥ 80			≥ 80		
CCc1ncnc(N2C3CCC2CC(=NOCc2cccc(C)c2F)C3)c1Cl [Example 5.74]	≥ 80	≥ 80	≥ 80				
c1cc(CON=C2CC3CCC(C2)N3c2ncnc3sccc23)ccn1 [Example 5.131]		≥ 80			≥ 80		
Fc1cccc(OC2C[C@H]3CC[C@@H](C2)N3c2ncnc3sccc23)c1F (stereo partly drawn) [Example 1.24]	≥ 80		≥ 80		≥ 80	≥ 60	
Clc1cccc(Cl)c1CON=C1CC2CCC(C1)N2c1ncnc2sccc12 [Example 5.144]	≥ 80	≥ 80		≥ 80	≥ 80		
Cc1cccc(CON=C2CC3CCC(C2)N3c2ncnc3sccc23)c1F [Example 5.223]	≥ 80	≥ 80	≥ 80		≥ 80		
CCc1ncnc(N2C3CCC2CC(=NOCc2cccc(C)c2)C3)c1Cl [Example 5.12]	≥ 80	≥ 80	≥ 80		≥ 80		
CCc1ncnc(N2C3CCC2CC(=NOCc2cccc(C#N)c2)C3)c1Cl [Example 5.44]	≥ 80	≥ 80	≥ 80		≥ 80		
CCc1ncnc(N2C3CCC2CC(=NOCc2cccc(OC)c2)C3)c1Cl [Example 5.15]	≥ 80	≥ 80			≥ 80		
CCc1ncnc(N2C3CCC2CC(=NOc2ncccn2)C3)c1Cl [Example 5.2]							≥ 80
CCc1ncnc(N2C3CCC2CC(=NOCc2ccccc2C#N)C3)c1Cl [Example 5.38]	≥ 80	≥ 80			≥ 80	≥ 60	
C#CCOc1ccc(C(C)(C)c2ccc(OC3C[C@H]4CC[C@@H](C3)N4c3ncnc4sccc34)cc2)cc1 (stereo partly drawn) [Example 2.225]			≥ 80				
FC(F)Oc1cccc(CON=C2CC3CCC(C2)N3c2ncnc3sccc23)c1 [Example 5.204]	≥ 80	≥ 80	≥ 80		≥ 80	≥ 60	
CCc1ncnc(N2C3CCC2CC(=NOCc2c(Cl)cccc2Cl)C3)c1Cl [Example 5.34]		≥ 80	≥ 80				
c1ccc(-c2ccccc2CON=C2CC3CCC(C2)N3c2ncnc3sccc23)cc1 [Example 5.177]							≥ 80
CCc1ncnc(N2C3CCC2CC(=NOCc2ccccc2Cl)C3)c1Cl [Example 5.28]	≥ 80	≥ 80	≥ 80		≥ 80		
CCc1ncnc(N2C3CCC2CC(=NOCc2cccc(Cl)c2F)C3)c1Cl [Example 5.79]	≥ 80	≥ 80	≥ 80				
CCc1ncnc(N2C3CCC2CC(=CC(=O)N(C)C)C3)c1Cl [Example 3.3]							≥ 80
Fc1cccc(Cl)c1CON=C1CC2CCC(C1)N2c1ncnc2sccc12 [Example 5.213]	≥ 80	≥ 80	≥ 80		≥ 80		
CCc1ncnc(N2C3CCC2CC(=NOCc2c(F)cccc2F)C3)c1Cl [Example 5.61]	≥ 80	≥ 80	≥ 80		≥ 80	≥ 60	
CCc1ncnc(N2C3CCC2CC(=NOCc2ccc(-c4nnn(CC)n4)cc2)C3)c1Cl [Example 5.112]	≥ 80	≥ 80			≥ 80		
FC(F)(F)c1ccccc1CON=C1CC2CCC(C1)N2c1ncnc2sccc12 [Example 5.188]	≥ 80	≥ 80	≥ 80		≥ 80	≥ 60	

Compound	pest or weed control at 200 ppm [1] [%]	pest or weed control at 200 ppm [2] [%]	pest or weed control at 200 ppm [3] [%]	pest or weed control at 200 ppm [4, 7] [%]	pest or weed control at 2 ppm [5] [%]	pest or weed control at 200 ppm [4, 8] [%]	pest or weed control at 200 ppm [6] [%]
COc1cccc(CON=C2CC3CCC(C2)N3c2ncnc3sccc23)c1 [Example 5.164]	≥ 80	≥ 80	≥ 80		≥ 80		
CC(C)c1ccc(OC2C[C@H]3CC[C@@H](C2)N3c2ncnc3sccc23)cc1 (stereo partly drawn) [Example 2.17]		≥ 80	≥ 80				
Cc1ccc(OC2C[C@H]3CC[C@@H](C2)N3c2ncnc3sccc23)cc1 (stereo partly drawn) [Example 1.7]	≥ 80				≥ 80		
FC(F)Oc1ccccc1CON=C1CC2CCC(C1)N2c1ncnc2sccc12 [Example 5.202]	≥ 80	≥ 80			≥ 80	≥ 60	
CCc1ncnc(N2C3CCC2CC(=NOCc2ccccc2C(F)(F)F)C3)c1Cl [Example 5.70]	≥ 80	≥ 80	≥ 80		≥ 80		
CCc1ncnc(N2C3CCC2CC(=NOCc2ccc(Cl)cc2Cl)C3)c1Cl [Example 5.50]			≥ 80				
CCc1ncnc(N2C3CCC2CC(=NOCc2ccc(C)c(C)c2)C3)c1Cl [Example 5.27]	≥ 80	≥ 80	≥ 80				
CCc1ncnc(N2[C@@H]3CC[C@H]2CC(Oc2cccc(F)c2F)C3)c1Cl (stereo partly drawn) [Example 1.164]	≥ 80	≥ 80	≥ 80		≥ 80		
FC(F)(F)c1cccc(CON=C2CC3CCC(C2)N3c2ncnc3sccc23)c1 [Example 5.187]	≥ 80	≥ 80	≥ 80		≥ 80	≥ 60	
CCc1ncnc(N2C3CCC2CC(=NOCc2c(C)cc(C)cc2C)C3)c1Cl [Example 5.33]		≥ 80	≥ 80				
CCc1ncnc(N2C3CCC2CC(=NOCc2cccnc2)C3)c1Cl [Example 5.25]		≥ 80			≥ 80		
CCc1ncnc(N2[C@@H]3CC[C@H]2CC(Oc2ccc4c(c2)OCO4)C3)c1Cl (stereo partly drawn) [Example 2.138]					≥ 80		
CCc1ncnc(N2[C@@H]3CC[C@H]2CC(Oc2ccc(C(C)C)cc2)C3)c1Cl (stereo partly drawn) [Example 2.143]			≥ 80				
CCc1ncnc(N2C3CCC2CC(=NOCc2ccc(C)cc2C)C3)c1Cl [Example 5.36]	≥ 80	≥ 80	≥ 80		≥ 80		
CCc1ncnc(N2C3CCC2CC(=NOCc2c(F)cccc2Cl)C3)c1Cl [Example 5.90]	≥ 80	≥ 80			≥ 80		
CCc1ncnc(N2[C@@H]3CC[C@H]2CC(NCc2ccc(Cl)cc2)C3)c1Cl (stereo partly drawn) [Example 4.12]							≥ 80
c1nc(N2[C@@H]3CC[C@H]2CC(Oc2ccc4c(c2)OCO4)C3)c2ccsc2n1 (stereo partly drawn) [Example 2.29]		≥ 80			≥ 80		
CCc1ncnc(N2[C@@H]3CC[C@H]2CC(Oc2c(F)c(F)c(F)c(F)c2F)C3)c1Cl (stereo partly drawn) [Example 2.150]					≥ 80		
Cc1cc(C)cc(CON=C2CC3CCC(C2)N3c2ncnc3sccc23)c1 [Example 5.156]	≥ 80	≥ 80				≥ 60	
FC(F)(F)Sc1cccc(CON=C2CC3CCC(C2)N3c2ncnc3sccc23)c1 [Example 5.239]	≥ 80	≥ 80		≥ 80			
CCc1ncnc(N2C3CCC2CC(=NOCc2ccccc2OC(F)F)C3)c1Cl [Example 5.68]	≥ 80	≥ 80	≥ 80		≥ 80		
CCc1ncnc(N2C3CCC2CC(=NOCc2ccccc2Br)C3)c1Cl [Example 5.31]	≥ 80	≥ 80	≥ 80				
CCc1ncnc(N2[C@@H]3CC[C@H]2CC(Oc2ccc(C(C)(C)C)cc2)C3)c1Cl (stereo partly drawn) [Example 2.147]			≥ 80				
CCc1ncnc(N2C3CCC2CC(=NOCc2ccc(OC)c(Cl)c2Cl)C3)c1Cl [Example 5.88]	≥ 80	≥ 80	≥ 80	≥ 80	≥ 80		
